The values below are quoted from earlier work in patent publication US8288413B2, “Benzimidazolones which have activity at M1 receptor” (Glaxo Group Limited, priority 2005, dated 2012).

The structures appear in SMILES notation.

The subject of one series is c-fos expression. The following applies: rats.
The conditions of series [1]: in vivo.
Series [2] relates to unilateral 6-OH-DA lesioned rats.

On to `CCCCCCOc1nsnc1C1=CCCN(C)C1` [xanomeline], for which, in the series with monkeys, the EPS liability result was “without EPS liability” and the amphetamine-induced motor unrest entry is “reverses”. Moreover, the apomorphine induced climbing entry in the series with mice is “reverses”. In the series on c-fos expression, the “c-fos expression in prefrontal cortex and nucleus accumbens” value was “induces”; the “c-fos expression in striatum” value was “not in striatum”. In addition, in the series with Alzheimer's patients (Alzheimer's patients), the “psychotic symptoms such as suspiciousness, hallucinations and delusions” value is “reduce”. In addition, the side effects result in the series with Alzheimer's patients (clinical use) is listed as “dose-limiting peripheral cholinergic side effects”. In addition, the conditioned avoidance entry in series [1] was “inhibit”. Moreover, the amphetamine induced locomotion result in the series with rats is “reverses”. Besides, the “A9 dopamine cell firing” value with dopamine cell firing (A9) is listed as “not A9”. The “A10 dopamine cell firing” value in the series on dopamine cell firing (A10) is on record as “inhibit”. Further, the “dopamine agonist driven turning” value in series [2] is given as “reverses”.
